{
  "source": "patent US20070224267A1",
  "about": "“Ambroxol for the treatment of painful conditions in the mouth and pharyngeal cavity” (priority 2002, published 2007)",
  "key": {"[1]": {"tested_on": "patients with acute sore throat", "test": "Clinical trial of suckable tablets containing 20 mg ambroxol hydrochloride vs placebo in acute sore throat (Example 1)", "format": "in vivo", "protocol": "A multi-centred, prospective, placebo-controlled, randomised double-blind trial was carried out over two days' treatment with up to 6 suckable tablets containing ambroxol hydrochloride per day. Patients: 218 patients (97 men, 121 women) with an average age of 39.4±15 years (range from 17-81 years) were recruited; of these 215 patients were treated: 107 with 20 mg of ambroxol and 108 with placebo. 26 patients stopped the treatment early (13 in each treatment group). The intent-to-treat (ITT) population consisted of 208 patients (105 treated with ambroxol and 103 given the placebo); 196 patients formed the per-protocol (PP) population (97 with test substance and 99 with placebo). For the drug safety analysis, all the patients treated were studied. Treatments: Double-blind treatment with up to 6 suckable tablets per day, which either contained 20 mg of ambroxol or constituted a placebo (suckable tablet without the active substance, but with a marked flavour of peppermint similar to the test substance). End points: The average pain reduction, weighted for time, during the first 3 hours after administration of the first suckable tablet, standardised to the degree of initial pain (SPIDnorm); moreover, the assessment of effectiveness and tolerance by the patient at the end of each day of treatment."}, "[2]": {"tested_on": "patients with acute sore throat", "test": "Clinical trial of suckable tablets containing 20 or 30 mg ambroxol hydrochloride vs placebo in acute sore throat (Example 2)", "format": "in vivo", "settings": "for average SPIDnorm (±SD) after the first suckable tablet: time-weighted average pain reduction in first 3 hours, standardised to initial pain, placebo 0.38±0.28", "protocol": "A multi-centred, prospective, placebo-controlled, randomised double-blind trial was carried out over three days' treatment with up to 6 suckable tablets containing ambroxol hydrochloride per day. Patients: 331 ambulant patients with acute uncomplicated sore throats of at least moderate severity but with no bacterial pharyngitis were investigated. Treatments: Double-blind treatment with up to 6 suckable tablets per day containing either 20 mg or 30 mg of ambroxol hydrochloride or constituting a placebo (suckable tablet without the active substance, but again with a marked flavour of peppermint similar to the test substance). End points: The average pain reduction, weighted for time, during the first 3 hours after administration of the first suckable tablet, standardised to the degree of initial pain (SPIDnorm); moreover, the assessment of effectiveness and tolerance by the patient at the end of each day of treatment."}, "[3]": {"settings": "up to 6 suckable tablets of 20 mg per day, two days, vs placebo"}},
  "note": "Structures can show the parent of a compound that is named as a salt.",
  "data": [
    {"smiles": "Nc1c(Br)cc(Br)cc1CN[C@H]1CC[C@H](O)CC1", "note": "[ambroxol hydrochloride, trans-4-[(2-amino-3,5-dibromobenzyl)amino]cyclohexano hydrochloride]", "values": [
      {"measurement": "average SPIDnorm (±SD) after the first suckable tablet", "setting": "[1]; 20 mg suckable tablet, time-weighted average pain reduction in first 3 hours, standardised to initial pain, placebo 0.28±0.25", "value": "0.39±0.27"},
      {"measurement": "assessment of effectiveness by the patient at the end of each day of treatment", "setting": "[1]; [3]", "value": "statistically significantly larger number of patients reported a higher degree of effectiveness"},
      {"measurement": "tolerance", "setting": "[1]; [3]", "value": "tolerated just as well as the placebo"},
      {"measurement": "average SPIDnorm (±SD) after the first suckable tablet", "setting": "[2]; 20 mg suckable tablet", "value": "0.53±0.28"},
      {"measurement": "average SPIDnorm (±SD) after the first suckable tablet", "setting": "[2]; 30 mg suckable tablet", "value": "0.50±0.30"},
      {"measurement": "assessment of effectiveness by the patient at the end of each day of treatment", "setting": "[2]; up to 6 suckable tablets of 20 or 30 mg per day, three days, vs placebo", "value": "statistically significantly larger number of patients reported a higher degree of effectiveness"},
      {"measurement": "tolerance", "setting": "[2]; up to 6 suckable tablets per day, three days, all dosages (20 and 30 mg), vs placebo", "value": "tolerated just as well as the placebo"}
    ]}
  ]
}
